Measurements taken from patent US20090022821A1, “COMPOSITIONS FROM WAX MYRTLE FOR THE TREATMENT OF CANCER, CARDIOVASCULAR AND INFLAMMATORY DISEASES” (priority 2007, published 2009).

Tests used:
[1] = tested on: Aortic Smooth Muscle Cells (A7r5); test: Methylene Blue Cell Proliferation assay, Aortic Smooth Muscle Cells (A7r5); format: cell-based, rat; details: 3 days, methylene blue staining, serum free medium, FIG. 3
Method: Inhibition of Proliferation of Aortic Smooth Muscle Cells (A7r5) by wax myrtle extract: The Methylene Blue Cell Proliferation assay assess growth inhibition in a cell-based proliferation assay using protein staining as an estimate of relative cell number. For assessment of cell-based potency, A7r5 (20,000 cells/well) were plated in 96-well plates in the growth media. After 24 h, cells were exposed to compounds at different concentrations. A final concentration of 0.2% DMSO was added to the growth media to keep the compounds in solution. After 3 days, relative cell numbers were estimated using methylene blue staining. The absorbance at 620 nm was read in a microplate reader. Data were analyzed using curve-fitting macros written for Microsoft Excel. Concentrations with IC50 were interpolated using the equation: y=Vmax×[1−(x^n/(K^n+x^n))], where “K” is equal to IC50.

[2] = tested on: Aortic Smooth Muscle Cells (A7r5); test: Induction of apoptosis by Cell Death ELISA (cytoplasmic histone-DNA fragments) in A7r5 cells; format: cell-based, rat; details: 24 h treatment, serum free medium, FIG. 4
Method: Induction of Apoptosis in Aortic Smooth Muscle Cells (A7r5) by wax myrtle extract and myriceric acid,: Quantitation of apoptotic cell death was determined by Cell Death ELISA (Roche Biochemicals) that measures cytoplasmic histone-DNAfragments produced during apoptosis. Briefly, A7r5 cells (5×10^3/well)were grown in 96-well plates and treated, in triplicates, for 24 h with the indicated doses of wax myrtle extract and myriceric acid A. After treatment, the 96-well plates were centrifuged (200×g) for 10 min. The supernatant was discarded, lysis buffer was added, and samples were incubated at room temperature. Lysates were transferred to reaction wells and incubated with anti-histone biotin and anti-DNA peroxidase antibodies and incubated at room temperature for 2 h. After three washes, the peroxidase substrate was added to each well, and the plates were read at 405 nm after 15-min incubation. The enrichment of histone-DNAfragments treated cells is expressed as absorbance at 405 nm.

[3] = tested on: ET-1-induced [Ca++] flux in rat aortic smooth muscle cells A7r5; details: reference (23), cited from earlier work
[4] = target: T1, ET receptor, rat aortic smooth muscle cells (Rattus norvegicus, UniProt P26684); details: reference (23), cited from earlier work
T1 construct: endogenous in cells; host or cells: rat aortic smooth muscle cells
T1 sequence (P26684 21-426): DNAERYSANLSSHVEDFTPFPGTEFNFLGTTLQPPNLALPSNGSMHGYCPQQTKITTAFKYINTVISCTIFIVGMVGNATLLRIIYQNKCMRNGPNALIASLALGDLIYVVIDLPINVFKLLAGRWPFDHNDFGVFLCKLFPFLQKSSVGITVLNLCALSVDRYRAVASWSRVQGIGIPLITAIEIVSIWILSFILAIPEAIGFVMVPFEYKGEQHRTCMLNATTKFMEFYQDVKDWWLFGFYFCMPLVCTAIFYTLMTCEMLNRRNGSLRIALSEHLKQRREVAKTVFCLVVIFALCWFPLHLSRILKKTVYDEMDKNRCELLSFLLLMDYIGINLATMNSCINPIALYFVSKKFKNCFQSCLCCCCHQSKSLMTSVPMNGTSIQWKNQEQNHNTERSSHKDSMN

## Myriceric acid A
[1]
  estimated IC50, growth inhibition of A7r5: 0.87±0.30 […]μg/ml
[2]
  apoptosis, enrichment of histone-DNA fragments (absorbance at 405 nm): dose-dependent apoptosis
[3]; repeated as I50 for block of ET signaling pathway, read-out: IC50, inhibition of ET-1-induced [Ca++] flux
  IC50: 11 nM
[3]
  IC50, inhibition of ET-1-induced [Ca++] flux: 0.0075 µg/mL
[4]
  Ki, binding of radiolabeled ET to rat aortic smooth muscle cells: 0.04 µg/mL
[4]; read-out: Ki, binding of radiolabeled ET to rat aortic smooth muscle cells
  Ki: 66 nM
